Test results reported in US20260250312A1, “ANTIBACTERIAL COMPOUNDS ELIMINATING DORMANT BACTERIAL CELLS” (UNIVERSITÉ D'AIX-MARSEILLE, priority 2022, published 2026).
Values after ≈ are worked out from the molar mass of the structure shown. Values joined by “and” are separate entries in the source; they are usually repeats but may differ in a detail not shown here. Equal entries are not always repeated. Where two headings read alike, the source gives them in different places. Marks after values point to notes of the source that are not given here.

Tests used:
[1] = tested on: Escherichia coli (ATCC28922); experiment: Microdilution MIC assay (CLSI-based), E. coli; assay type: cell-based; settings: 20 hours incubation at 35-37° C., MHB; for MIC: Escherichia coli, ATCC28922, 20 h, read-out: Minimum inhibitory concentration E. coli ATCC28922
How it was run: (§1)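 Broth microdilution per modified CLSI guidelines in Mueller Hinton broth, 200 μL, inoculum ca. 5×10^5 CFU/mL; compounds tested as salts, twofold dilutions from 0.2 mg/mL, in triplicate. MIC determined from OD at 620 nm after incubation.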

[2] = tested on: CHO-K1 cells; experiment: WST1 cytotoxicity test; assay type: cell-based, Chinese hamster
How it was run: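 CHO-K1 cells pre-cultured 24 h, then exposed 24 h at 37 °C to increasing compound concentrations. Viability read as WST-1 formazan absorbance at 450 nm after 20 min; dose-response fitted by nonlinear regression.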

[3] = tested on: Enterococcus faecalis (ATCC29212); experiment: Microdilution MIC assay (CLSI-based), E. faecalis; assay type: cell-based; settings: 20 hours incubation at 35-37° C., MHB; for MIC: Enterococcus faecalis, ATCC29212, 20 h, read-out: Minimum inhibitory concentration E. faecalis ATCC29212
How it was run: as §1

[4] = tested on: E. coli non-persister cells; experiment: Anti-persister activity test, non-persister cells; assay type: cell-based, Escherichia coli; settings: for viability at 125 µM / viability at 62.5 µM: Escherichia coli, 4 h; for viability at 125 µM: read-out: Non-persister cell survival rate 96 h, concentration used 125 μM, 4 hours treatment; for activity on non-persister cells (in words): E. coli non-persister cells, Table 8 conditions; for Non-persister cell survival rate 96 h: concentration used 250 μM, 4 hours treatment; for viability at 62.5 µM: read-out: Non-persister cell survival rate 96 h, concentration used 62.5 μM, 4 hours treatment
Experimental: (§2) Anti-persister activity test: Escherichia coli (E. coli) persister cells were generated and isolated as described by MARQUES, C. N. H. et al. (Applied and Environmental Microbiology 2014, Vol. 80, No. 22, pp. 6976-6991). E. coli persister cells were compared to E. coli non-persister cells. 1 mL persister or non-persister bacteria culture was added in a 1.5 mL microtube with each of the compounds to be tested or ciprofloxacin as a […], and incubated at 37° C. with 160 rpm shaking for 4 hours. After 4 hours treatment with the compounds, the microtubes were centrifuged at 3,500g for 5 minutes and the pellets were resuspended in 1 mL of fresh drug free RM broth (10 g/L M9 salt, 2% casamino acids, 1 mM MgCl2, 1% glycerol). Resuspended bacteria were then plated over LB agar plates and incubated at 37° C. Bacterial colonies were enumerated after 24, 48 and 96 hours to estimate the survival rate.

[5] = tested on: Staphylococcus aureus (ATCC25923); experiment: Microdilution MIC assay (CLSI-based), S. aureus; assay type: cell-based; settings: 20 hours incubation at 35-37° C., MHB; for MIC: Staphylococcus aureus, ATCC25923, 20 h, read-out: Minimum inhibitory concentration S. aureus ATCC25923
How it was run: as §1

[6] = tested on: Escherichia coli (E. coli) persister cells; experiment: Anti-persister activity test, persister cells; assay type: cell-based; settings: for anti-persister activity (in words): E. coli persister cells, Table 8 conditions; for viability at 125 µM / viability at 62.5 µM: Escherichia coli, 4 h; for viability at 125 µM: read-out: Persister cell survival rate 96 h, concentration used 125 μM, 4 hours treatment; for Persister cell survival rate 96 h: concentration used 250 μM, 4 hours treatment; for viability at 62.5 µM: read-out: Persister cell survival rate 96 h, concentration used 62.5 μM, 4 hours treatment
Experimental: as §2

[7] = tested on: Pseudomonas aeruginosa (ATCC27853); experiment: Microdilution MIC assay (CLSI-based), P. aeruginosa; assay type: cell-based; settings: 20 hours incubation at 35-37° C., MHB; for MIC: Pseudomonas aeruginosa, ATCC27853, 20 h, read-out: Minimum inhibitory concentration P. aeruginosa ATCC27853
How it was run: as §1

[8] = Cricetulus griseus, CHO-K1, 24 h, WST1, 24 hours at 37° C., read-out: IC50 CHO
[9] = Cricetulus griseus, CHO-K1, WST1, as printed in Table 8, read-out: Toxicity IC50 CHO

Row | SMILES | MIC [1] | toxicity results (in words) [2] | IC50 [2, 8] | IC50 [2, 9] [µM] | MIC [3] | viability at 125 µM [4] [%] | MIC [5] | anti-persister activity (in words) [6] | viability at 125 µM [6] [%] | MIC [7] | activity on non-persister cells (in words) [4] | other results
1 | COC(=O)[C@H](Cc1ccccc1)NC(=O)CC[C@@H](C)[C@H]1CCC2C3C(CC[C@@]21C)[C@@]1(C)CC[C@H](NCCCNCCCCNCCCN)C[C@H]1C[C@H]3O (stereo partly drawn) [Compound S014, methyl ((4R)-4-((3S,5S,7R,10S,13R,17R)-3-((3-((4-((3-aminopropyl)amino)butyl)amino)propyl)amino)-7-hydroxy-10,13-dimethylhexadecahydro-1H-cyclopenta[a]phenanthren-17-yl)pentanoyl)-L-phenylalaninate] | 6.25 µM and 4 µg/mL | good toxicity results | 77.6 µM and 57.3 µg/mL | 77.6 | 12.5 µM and 8 µg/mL | 0 | 3.12 µM and 2 µg/mL | both anti-persister and anti-bacterial activities | 0 | 25 µM and 16 µg/mL |  | 
2 | COC(=O)[C@H](NC(=O)CC[C@@H](C)[C@H]1CCC2C3C(CC[C@@]21C)[C@@]1(C)CC[C@H](NCCCNCCCN)C[C@H]1C[C@H]3O)C(C)C (stereo partly drawn) [Compound S017, methyl ((4R)-4-((3S,5S,7R,10S,13R,17R)-3-((3-((3-aminopropyl)amino)propyl)amino)-7-hydroxy-10,13-dimethylhexadecahydro-1H-cyclopenta[a]phenanthren-17-yl)pentanoyl)-D-valinate] |  |  |  |  |  |  |  | not as good on persister cells |  |  | good activity on non-persister cells | Minimum inhibitory concentration E. coli ATCC28922 [1]: 12.5* μM and 8* μg/mL; IC50 CHO ([2]; WST1, 24 hours at 37° C.): 33.23 µg/mL (≈ 53.7 µM); IC50 ([2]; WST1, 24 hours at 37° C., read-out: IC50 CHO): 53.7 µM; IC50 ([2]; WST1, Table 8, read-out: Toxicity IC50 CHO): 53.7 µM; Minimum inhibitory concentration E. faecalis ATCC29212 [3]: 25* μM and 16* μg/mL; Non-persister cell survival rate 96 h [4]: 0.0%; Minimum inhibitory concentration S. aureus ATCC25923 [5]: 12.5* μM and 8* μg/mL; Persister cell survival rate 96 h [6]: 0.6%; Minimum inhibitory concentration P. aeruginosa ATCC27853 [7]: 50* μM and 32* μg/mL
3 | COC(=O)[C@H](NC(=O)CC[C@@H](C)[C@H]1CCC2C3C(CC[C@@]21C)[C@@]1(C)CC[C@H](NCCCNCCCN)C[C@H]1C[C@H]3O)C(C)C (stereo partly drawn) [Compound S019, methyl ((4R)-4-((3S,5S,7R,10S,13R,17R)-3-((3-((3-aminopropyl)amino)propyl)amino)-7-hydroxy-10,13-dimethylhexadecahydro-1H-cyclopenta[a]phenanthren-17-yl)pentanoyl)-D-valinate] |  |  |  | 97.1 |  |  |  | very potent anti-persister activity |  |  |  | Minimum inhibitory concentration E. coli ATCC28922 [1]: 12.5* μM and 8* μg/mL; IC50 CHO ([2]; WST1, 24 hours at 37° C.): 60.09 µg/mL (≈ 97.1 µM); Minimum inhibitory concentration E. faecalis ATCC29212 [3]: 25* μM and 16* μg/mL; Non-persister cell survival rate 96 h [4]: 4.0%; Minimum inhibitory concentration S. aureus ATCC25923 [5]: 6.25* μM and 4* μg/mL; Persister cell survival rate 96 h [6]: 0.0%; Minimum inhibitory concentration P. aeruginosa ATCC27853 [7]: 12.5* μM and 8* μg/mL
4 | COC(=O)[C@H](Cc1ccc(O)cc1)NC(=O)CC[C@@H](C)[C@H]1CCC2C3C(CC[C@@]21C)[C@@]1(C)CC[C@H](NCCCNCCCCNCCCN)C[C@H]1C[C@H]3O (stereo partly drawn) [Compound S039, methyl ((4R)-4-((3S,5S,7R,10S,13R,17R)-3-((3-((4-((3-aminopropyl)amino)butyl)amino)propyl)amino)-7-hydroxy-10,13-dimethylhexadecahydro-1H-cyclopenta[a]phenanthren-17-yl)pentanoyl)-L-tyrosinate] | 6.25 µM and 4 µg/mL | good toxicity results | 60 µM and 45.3 µg/mL | 60 | 12.5 µM and 8 µg/mL |  | 6.25 µM and 4 µg/mL | very potent anti-persister activity |  | 6.25 µM and 4 µg/mL |  | viability at 62.5 µM [4]: 2.7%; viability at 62.5 µM [6]: 0%
5 | CC[C@H](C)[C@H](NC(=O)CC[C@@H](C)[C@H]1CC[C@H]2[C@@H]3[C@H](O)C[C@@H]4C[C@@H](NCCCNCCNCCCN)CC[C@]4(C)[C@H]3CC[C@]12C)C(=O)OC [Compound S041, methyl (2S,3S)-2-((4R)-4-((3S,5S,7R,10S,13R,17R)-3-((3-((2-((3-aminopropyl)amino)ethyl)amino)propyl)amino)-7-hydroxy-10,13-dimethylhexadecahydro-1H-cyclopenta[a]phenanthren-17-yl)pentanamido)-3-methylpentanoate] | 12.5 µM and 8 µg/mL |  | 9.8 µM and 6.63 µg/mL | 9.8 | 12.5 µM and 8 µg/mL | 0 | 12.5 µM and 8 µg/mL | not as good on persister cells | 0.1 | 12.5 µM and 8 µg/mL | good activity on non-persister cells | 
6 | COC(=O)[C@H](Cc1ccc(O)cc1)NC(=O)CC[C@@H](C)[C@H]1CCC2C3C(CC[C@@]21C)[C@@]1(C)CC[C@H](NCCCNCCNCCCN)C[C@H]1C[C@H]3O (stereo partly drawn) [Compound S042, methyl ((4R)-4-((3S,5S,7R,10S,13R,17R)-3-((3-((2-((3-aminopropyl)amino)ethyl)amino)propyl)amino)-7-hydroxy-10,13-dimethylhexadecahydro-1H-cyclopenta[a]phenanthren-17-yl)pentanoyl)-L-tyrosinate] | 12.5 µM and 8 µg/mL | good toxicity results | 51.4 µM and 37.3 µg/mL | 51.4 | 25 µM and 16 µg/mL | 0 | 6.25 µM and 4 µg/mL | not as good on persister cells | 0.1 | 25 µM and 16 µg/mL | good activity on non-persister cells | 
7 | CC[C@@H](C)[C@H](NC(=O)CC[C@@H](C)[C@H]1CC[C@H]2[C@@H]3[C@H](O)C[C@@H]4C[C@@H](NCCCNCCCCNCCCN)CC[C@]4(C)[C@H]3CC[C@]12C)C(=O)OC [Compound S044, methyl (2S,3R)-2-((4R)-4-((3S,5S,7R,10S,13R,17R)-3-((3-((4-((3-aminopropyl)amino)butyl)amino)propyl)amino)-7-hydroxy-10,13-dimethylhexadecahydro-1H-cyclopenta[a]phenanthren-17-yl)pentanamido)-3-methylpentanoate] | 6.25 µM and 4 µg/mL | good toxicity results | 52.4 µM and 36.9 µg/mL | 52.4 | 6.25 µM and 4 µg/mL |  | 6.25 µM and 4 µg/mL | both anti-persister and anti-bacterial activities |  | 12.5 µM and 8 µg/mL |  | viability at 62.5 µM [4]: 0%; viability at 62.5 µM [6]: 0%
8 | COC(=O)[C@H]1CCCN1C(=O)CC[C@@H](C)[C@H]1CCC2C3C(CC[C@@]21C)[C@@]1(C)CC[C@H](NCCCNCCNCCCN)C[C@H]1C[C@H]3O (stereo partly drawn) [Compound S046, methyl ((4R)-4-((3S,5S,7R,10S,13R,17R)-3-((3-((2-((3-aminopropyl)amino)ethyl)amino)propyl)amino)-7-hydroxy-10,13-dimethylhexadecahydro-1H-cyclopenta[a]phenanthren-17-yl)pentanoyl)-D-prolinate] | 12.5 µM and 8 µg/mL |  | 9.53 µM and 6.29 µg/mL | 9.53 | 6.25 µM and 4 µg/mL | 0.3 | 12.5 µM and 8 µg/mL | very potent anti-persister activity | 0 | 12.5 µM and 8 µg/mL |  | 
